Consider eleven compounds from patent publication US12077555B2, “STAT degraders and uses thereof” (Kymera Therapeutics, Inc., priority 2019, dated 2024).

Assay [1] relates to SU-DHL-1 tumor cells. Nature of the assay: Xenograph tumor study, SU-DHL-1. In kind it is in vivo, NOD SCID mice. The following applies: SUDHL-1 xenograph, IP, 2.5-30 mg/kg, 2 days on/5 days off. On the procedure:
Animals: 50 6-8 week old female NOD SCID mice weighing 18 to 20 grams. 25 mice were used in each study.
Method for Tumor Inoculation: Each mouse was inoculated subcutaneously with SU-DHL-1 tumor cells (1×107+Matrigel) or SUP-M2 tumor cells (5×106+Matrigel) in 0.1 ml of RPMI1640 medium supplemented with 10% FBS, 100 U/ml penicillin and […] streptomycin for tumor development. Mice were then assigned to groups such that the mean tumor volume was the same for each treatment group and time point. […] Vehicle was 25% HP-β-CD in water adjusted to pH 7.4.
Measurement Parameters: Study animals were monitored not only for tumor growth but also behavior such as mobility, food and water consumption (by cage side checking only), body weight (BW), eye/hair matting and any other abnormal effect. Any mortality and/or abnormal clinical signs was recorded. Sponsor was notified immediately if abnormal clinical signs, or if tolerability issues were observed. Body weights of all animals were measured and recorded twice per week. The measurement of tumor size was conducted twice weekly with a caliper and recorded. The tumor volume (mm3) was estimated using the formula: TV=a×b2/2, where “a” and “b” are long and short diameters of a tumor, respectively.

The target of assay [2] is T1, STAT3 (Homo sapiens, UniProt P40763). Briefly: STAT3 HiBiT degradation assay in transfected A549 cells. In kind it is cell-based. Details: expressed in transfected cells; host or cells: A549. Conditions: A549, 24 h; read-out: STAT3 HiBiT A549 degradation 24 h: Average external-Abs DC50. The gist of the method:
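Degradation read as HiBiT-tagged STAT3 luminescence (Nano-Glo lytic reagent, 10 min, room temperature) following 24 h compound treatment of transfected A549 cells at 3-fold, 10 points. Percent remaining signal computed against controls and fitted with a four-parameter logistic; DC50 reported as letter bins (A <0.01 to D >1.0 µM).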
(The HiBiT peptide binds its large partner to form an active luciferase.)

Assay [3] concerns the target T1, STAT3. Nature of the assay: Quantitation of STAT3 degradation in A549 cells by Western blot. In kind it is cell-based. Details: expressed in transfected cells; host or cells: A549. The gist of the method:
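A549 cells treated 24 h at 37° C with compound at 30, 10, 3, 1, 0.3 μM or DMSO; RIPA lysates analysed by SDS-PAGE/Western blot for total STAT3, β-actin as loading control, LI-COR fluorescence read-out. DC50 derived by sigmoidal fit of dose-dependent degradation.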
In general terms: Immunoblotting shows a protein as a band on a membrane.

Where [4] appears, read: read-out: A549 DC50, 24 hours, tested up to 30 μM or 10 μM.

Broadly, the DC50 is the concentration at which degradation of the target reaches its halfway point.

T1 sequence (P40763 whole entry): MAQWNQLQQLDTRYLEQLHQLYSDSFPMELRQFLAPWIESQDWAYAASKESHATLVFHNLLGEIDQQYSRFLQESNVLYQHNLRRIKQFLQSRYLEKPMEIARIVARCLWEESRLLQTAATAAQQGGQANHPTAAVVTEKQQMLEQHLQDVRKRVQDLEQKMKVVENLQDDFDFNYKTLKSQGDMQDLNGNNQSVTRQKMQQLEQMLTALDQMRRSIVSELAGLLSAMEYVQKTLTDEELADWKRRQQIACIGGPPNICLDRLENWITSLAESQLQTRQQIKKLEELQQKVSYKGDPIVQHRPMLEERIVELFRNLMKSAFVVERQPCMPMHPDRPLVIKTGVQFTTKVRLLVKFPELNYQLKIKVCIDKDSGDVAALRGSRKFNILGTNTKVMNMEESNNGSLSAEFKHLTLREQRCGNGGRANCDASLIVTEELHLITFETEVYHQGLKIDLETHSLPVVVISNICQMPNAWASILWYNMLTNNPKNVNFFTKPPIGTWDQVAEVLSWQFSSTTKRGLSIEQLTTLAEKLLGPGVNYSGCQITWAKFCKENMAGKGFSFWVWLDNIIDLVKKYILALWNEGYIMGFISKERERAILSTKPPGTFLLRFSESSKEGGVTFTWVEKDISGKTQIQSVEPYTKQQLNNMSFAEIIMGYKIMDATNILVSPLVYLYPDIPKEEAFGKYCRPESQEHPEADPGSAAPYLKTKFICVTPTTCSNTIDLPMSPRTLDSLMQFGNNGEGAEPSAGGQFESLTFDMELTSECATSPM

As to `CC(C)c1ccc(CNC(=O)[C@H](CCC(N)=O)NC(=O)[C@@H]2CC[C@@H]3CCN(C(=O)C[C@H]4CC[C@@H](Cc5ccc6c(c5)n(C)c(=O)n6C5CCC(=O)NC5=O)CC4)C[C@H](NC(=O)c4cc5cc(C(=O)P(=O)(O)O)ccc5[nH]4)C(=O)N32)cc1` (stereo partly drawn) [Compound I-196, 2-[[(5S,8S,10aR)-8-[[(1S)-3-carbamoyl-1-[[(4-isopropylphenyl)methyl]carbamoyl]propyl]carbamoyl]-6-oxo-3-[2-[(1S,4S)-4-[[1-(2,6-dioxopiperidin-3-yl)-3-methyl-2-oxo-1,3-benzodiazol-5-yl]methyl]cyclohexyl]acetyl]-octahydropyrrolo[1,2-a][1,5]diazocin-5-yl]carbamoyl]-1H-indole-5-carbonylphosphonic acid], in assay [1] (5 days), the “tumor volume, 5 days” value is on record as “A (A<500 mm^3)”. Further, in assay [1] (10 days), the “tumor volume, 10 days” value is given as “A (A<500 mm^3)”. Also, in assay [1] (15 days), the “tumor volume, 15 days” value is on record as “A (A<500 mm^3)”. Further, the “tumor volume, 20 days” value in assay [1] (20 days) is listed as “A (A<500 mm^3)”. Besides, in assay [2], the DC50 was in the range of 0.01 to 0.1 µM.

Turning to `C/C(=C\C(=O)N[C@H]1CCc2cccc3c2N(C1=O)[C@H](C(=O)N[C@@H](CCC(N)=O)[C@@H](C)OCc1ccc(CCCOCCOCCCc2ccc4c(c2)n(C)c(=O)n4C2CCC(=O)NC2=O)cc1)C3)c1ccc(C(F)(F)P(=O)(OCOC(=O)C(C)(C)C)OCOC(=O)C(C)(C)C)cc1` (stereo partly drawn) [Compound I-54], in assay [3] (setting [4]), the half-maximal degradation concentration (DC50) is > 30 µM.

As for `C/C(=C\C(=O)N[C@H]1CCc2cccc3c2N(C1=O)[C@H](C(=O)N[C@@H](CCC(N)=O)[C@@H](C)OCc1ccc(CCCCC(=O)N[C@H](C(=O)N2C[C@H](O)C[C@H]2C(=O)NCc2ccc(-c4scnc4C)cc2)C(C)(C)C)cc1)C3)c1ccc(C(F)(F)P(=O)(OCOC(=O)C(C)(C)C)OCOC(=O)C(C)(C)C)cc1` [Compound I-8, (2S,4R)-1-[(2S)-2-[5-[4-([[(2R,3S)-3-[[(2S,11S)-11-amino-12-oxo-1-azatricyclo[6.4.1.0^[4,13]]trideca-4(13),5,7-trien-2-l]formamido]-5-carbamoylpentan-2-yl]oxy]methyl)phenyl]pentanamido]-3,3-dimethylbutanoyl]-4-hydroxy-N-[[4-(4-methyl-1,3-thiazol-5-yl)phenyl]methyl]pyrrolidine-2-carboxamide], the DC50 in assay [3] (setting [4]) was < 30 µM.

`Cc1ncsc1-c1ccc(CNC(=O)[C@@H]2C[C@@H](O)CN2C(=O)[C@@H](NC(=O)CCCCc2ccc(CO[C@H](C)[C@H](CCC(N)=O)NC(=O)[C@@H]3Cc4cccc5c4N3C(=O)[C@@H](NC(=O)c3cc4cc(CP(=O)(O)O)ccc4[nH]3)CC5)cc2)C(C)(C)C)cc1` [Compound I-82, diammonium (2-[[(2S,11S)-2-[[(3S,4R)-1-carbamoyl-4-[[4-(4-[[(2S)-1-[(2S,4R)-4-hydroxy-2-([[4-(4-methyl-1,3-thiazol-5-yl)phenyl]methyl]carbamoyl)pyrrolidin-1-yl]-3,3-dimethyl-1-oxobutan-2-yl]carbamoyl]butyl)phenyl]methxy]opentan-3-yl]carbamoyl]-12-oxo-1-azatricyclo[6.4.1.0^[4,13]]trideca-4(13),5,7-trien-11-yl]carbamoyl]-1H-indo1-5-yl)methylphosphonate]: the DC50 in assay [3] (24 hours, tested up to 30 μM or 10 μM, read-out: A549 DC50) was > 30 µM.

Take `C/C(=C\C(=O)N[C@H]1CCc2cccc3c2N(C1=O)[C@H](C(=O)N[C@@H](CCC(N)=O)[C@@H](C)OCc1ccc(CCOCCCc2cccc4c2n(C)c(=O)n4C2CCC(=O)NC2=O)cc1)C3)c1ccc(C(F)(F)P(=O)(OCOC(=O)C(C)(C)C)OCOC(=O)C(C)(C)C)cc1` (stereo partly drawn) [Compound I-9, [([4-[(1E)-1-[[(2S,11S)-2-[[(3S,4R)-1-carbamoyl-4-[[4-(2-[3-[1-(2,6-dioxopiperidin-3-yl)-3-methyl-2-oxo-1,3-benzodiazol-4-yl]propoxy]ethyl)phenyl]methoxy]pentan-3-yl]carbamoyl]-12-oxo-1-azatricyclo[6.4.1.0^[4,13]]trideca-4(13),5,7-trien-11-yl]carbamoyl]prop-1-en-2-yl]phenyl]difluoromethyl([(2,2-dimethylpropanoyl)oxy]methoxy)phosphoryl)oxy]methyl 2,2-dimethylpropanoate]: the DC50 in assay [3] (setting [4]) was > 30 µM.

On to `Cc1ncsc1-c1ccc(CNC(=O)[C@@H]2C[C@@H](O)CN2C(=O)[C@@H](NC(=O)CCC#Cc2ccc(CO[C@H](C)[C@H](CCC(N)=O)NC(=O)[C@@H]3Cc4cccc5c4N3C(=O)[C@@H](NC(=O)c3cc4cc(C(=O)P(=O)(O)O)ccc4[nH]3)CC5)cc2)C(C)(C)C)cc1` [Compound I-96, diammonium 2-[[(2S,11S)-2-[[(3S,4R)-1-carbamoyl-4-[[4-(4-[[(2S)-1-[(2S,4R)-4-hydroxy-2-([[4-(4-methyl-1,3-thiazol-5-yl)phenyl]methyl]carbamoyl)pyrrolidin-1-yl]-3,3-dimethyl-1-oxobutan-2-yl]carbamoyl]but-1-yn-1-yl)phenyl]methoxy]pentan-3-yl]carbamoyl]-12-oxo-1-azatricyclo[6.4.1.0^[4,13]]trideca-4(13),5,7-trien-11-yl]carbamoyl]-1H-indole-5-carbonylphosphonate], for which the DC50 in assay [3] (setting [4]) was > 30 µM.

As to `C/C(=C\C(=O)N[C@H]1CCc2cccc3c2N(C1=O)[C@H](C(=O)NC(CCC(N)=O)[C@@H](C)OCc1ccc(CCCOCCOCCOCCOCC(=O)N[C@H](C(=O)N2C[C@H](O)C[C@H]2C(=O)NCc2ccc(-c4scnc4C)cc2)C(C)(C)C)cc1)C3)c1ccc(C(F)(F)P(=O)(OCOC(=O)C(C)(C)C)OCOC(=O)C(C)(C)C)cc1` (stereo partly drawn) [Compound I-32], in assay [3] (setting [4]), the DC50 was > 10 µM.

With `Cn1c(=O)n(C2CCC(=O)NC2=O)c2ccc(CCCCCCCC(=O)N3CC[C@H]4CC[C@@H](C(=O)N[C@@H](CCC(N)=O)C(=O)NC(c5ccccc5)c5ccccc5)N4C(=O)[C@@H](NC(=O)c4cc5cc(C(=O)P(=O)(O)O)ccc5[nH]4)C3)cc21` (stereo partly drawn) [Compound I-97, 2-[[(5S,8S,10aR)-8-[[(1S)-3-carbamoyl-1-(diphenylmethylcarbamoyl)propyl]carbamoyl]-3-[8-[1-(2,6-dioxopiperidin-3-yl)-3-methyl-2-oxo-1,3-benzodiazol-5-yl]octanoyl]-6-oxo-octahydropyrrolo[1,2-a][1,5]diazocin-5-yl]carbamoyl]-1H-indole-5-carbonylphosphonic acid], the DC50 in assay [3] (setting [4]) is < 30 µM.

For the compound `C/C(=C\C(=O)N[C@H]1CCc2cccc3c2N(C1=O)[C@H](C(=O)NC(CCC(N)=O)[C@@H](C)OCc1ccc(CCCCOCC(=O)N[C@H](C(=O)N2C[C@H](O)C[C@H]2C(=O)NCc2ccc(-c4scnc4C)cc2)C(C)(C)C)cc1)C3)c1ccc(C(F)(F)P(=O)(OCOC(=O)C(C)(C)C)OCOC(=O)C(C)(C)C)cc1` (stereo partly drawn) [Compound I-34], the half-maximal degradation concentration (DC50) in assay [3] (setting [4]) is < 30 µM.

In the case of `CCCC[C@H](NC(=O)/C=C(\C)c1ccc(C(F)(F)P(=O)(OCOC(=O)C(C)(C)C)OCOC(=O)C(C)(C)C)cc1)C(=O)N1C[C@H]2C[C@H]2[C@H]1C(=O)N[C@@H](CCC(N)=O)[C@@H](C)OCc1ccc(CCCNC(=O)COCCOCCOCCCc2ccc3c(c2)n(C)c(=O)n3C2CCC(=O)NC2=O)cc1` (stereo partly drawn) [Compound I-59, [([4-[(1E)-1-[[(2S)-1-[(1R,2S,5S)-2-[[(3S,4R)-1-carbamoyl-4-[[4-(3-[2-[2-(2-[3-[1-(2,6-dioxopiperidin-3-yl)-3-methyl-2-oxo-1,3-benzodiazol-5-yl]propoxy]ethoxy)ethoxy]acetamido]propyl)phenyl]methoxy]pentan-3-yl]carbamoyl]-3-azabicyclo[3.1.0]hexan-3-yl]-1-oxohexan-2-yl]carbamoyl]prop-1-en-2-yl]phenyl]difluoromethyl([(2,2-dimethylpropanoyl)oxy]methoxy)phosphoryl)oxy]methyl 2,2-dimethylpropanoate], in assay [3] (setting [4]), the DC50 is > 30 µM.

As to `C/C(=C\C(=O)N[C@H]1CCc2cccc3c2N(C1=O)[C@H](C(=O)N[C@@H](CCC(N)=O)[C@@H](C)OCc1ccc(CCCCc2cccc4c2n(C)c(=O)n4C2CCC(=O)NC2=O)cc1)C3)c1ccc(C(F)(F)P(=O)(OCOC(=O)C(C)(C)C)OCOC(=O)C(C)(C)C)cc1` (stereo partly drawn) [Compound I-3], the DC50 in assay [3] (setting [4]) was > 30 µM.
